Assay [1] has as its system d(CATTGTCAGAC)2 (target site). The experiment in a line: CD titration, affinity constant for target-site duplex. The conditions noted are these: derived from CD titrations; 5 μM duplex DNA, 10 mM sodium phosphate pH 7.0, 40 mM NaCl, room temperature. The class given is binding. The method, then: (§1) The changes are generally monitored until saturation is reached. The equilibrium constant can be determined using standard techniques, such as Scatchard plot, the McGhee Von Hippel model, or least squares, for analysis.
(§2) All CD measurements were recorded on a Jasco J-810 CD spectropolarimeter at room temperature and cell length of 1 cm. Titrations were performed by incrementally adding aliquots of Im/Py/Py-Pt to a 2600 μL solution of 5 μM duplex DNA. After each addition, an average CD spectrum from 240 to 400 nm (20 accumulations) was recorded. DNA concentration was 5 μM. The concentration of Im/Py/Py-Pt ranged from 0 to 10 μM. Solution conditions were 10 mM sodium phosphate (pH 7.0) and 40 mM NaCl.

The test system of assay [2] is d(CATTGACAGAC)2 (single mismatch site). The experiment in a line: CD titration, affinity constant for single-mismatch duplex. Type of assay: binding. The conditions noted are these: derived from CD titrations; 5 μM duplex DNA, 10 mM sodium phosphate pH 7.0, 40 mM NaCl, room temperature. The method, then: as §1, §2
In assay [3] the test system is d(CATTGAGAGAC)2 (double mismatch site). Description: CD titration, affinity constant for double-mismatch duplex. The class given is binding. The conditions noted are these: derived from CD titrations; 5 μM duplex DNA, 10 mM sodium phosphate pH 7.0, 40 mM NaCl, room temperature. The method, then: as §1, §2
Assay [4] relates to relaxed and negatively supercoiled pUC19 DNA. The conditions noted are these: value reported for cisplatin; cited from earlier work.
For assay [5], the system named is recombinant pSP64 derivative. The experiment in a line: In vitro transcription assay (inhibition of RNA synthesis). Type of assay: biochemical. To be noted: increasing molar concentration; after 12 hour platination in the dark at 4° C.; 40 mM Tris-HCl pH 7.9. The method, then: FIG. 5—In vitro Transcription Assay “trans-Im/Py/Py-[CONH(CH2)2—NH2)Pt(NH3)2Cl” (“DJ1953-2”) The Inhibition of RNA synthesis by DJ1953-2 was assessed using a recombinant pSP64 derivative. Incubations were carried out in 40 mM Tris-HCl (pH 7.9), 6 mM MgCl2, 2 mM spermidine, 10 mM NaCl. Lane (1) 100-500 bases RNA marker; (2) to (8) increasing molar concentration of DJ1953-2. […] Experiments were conducted after 12 hour platination reactions (in the dark at 4° C.).
The Inhibition of RNA synthesis by DJ1953-2 was assessed using a recombinant pSP64 derivative. Incubations were carried out in 40 mM Tris-HCl (pH 7.9), 6 mM MgCl2, 2 mM spermidine, 10 mM NaCl. Lane (1) 100-500 bases RNA marker; Lanes (2) to (8) increasing molar concentration of DJ1953-2. […] Experiments were conducted after 12 hour platination reactions (in the dark at 4° C.).

Assay [6] deals with relaxed and negatively supercoiled pUC19 DNA. Description: DNA unwinding experiment by gel electrophoresis. To be noted: pUC19 plasmid incubated 1.5 hr at 37° C., rb 0-0.074. Type of assay: binding. The method, then:
Lanes: 0 Control rb=0; 1, rb=0.008; 2, rb=0.0.016; 3, rb=0.025; 4, rb=0.033; 5, rb=0.041; 6, rb=0.049; 7, rb=0.057; 8, rb=0.066; 9, rb=0.074.
The unwinding angle was determined to be 13° for this experiment, which is the same as that reported for cisplatin (13°). The plasmid was incubated with Im/Py/Py-Pt for 1.5 hr at 37° C. Lanes: 0 Control rb=0; 1, rb=0.008; 2, rb=0.0.016; 3, rb=0.025; 4, rb=0.033; 5, rb=0.041; 6, rb=0.049; 7, rb=0.057; 8, rb=0.066; 9, rb=0.074. The top bands correspond to the form of nicked plasmid and the bottom bands to the closed, negatively supercoiled plasmid shown in FIG. 4.

On to `Cn1cc(NC(=O)c2cc(NC(=O)c3nccn3C)cn2C)cc1C(=O)NCCCCCC[NH][Pt]([NH2])([NH2])[Cl]` [DJ-1953-6, trans-Im/Py/Py-[CONH(CH2)6—NH2)Pt(NH3)2Cl], for which the “apparent first-order affinity constant K for binding site d(CATTGTCAGAC)2” value in assay [1] is given as 2.4 × 10^6 (0.1) M^−1. Further, in assay [2], the “apparent first-order affinity constant K for binding site d(CATTGACAGAC)2” value is recorded as 4.4 × 10^5 (0.2) M^−1. Further, the “apparent first-order affinity constant K for binding site d(CATTGAGAGAC)2” value in assay [3] was 1.3 × 10^6 (0.1) M^−1.
Consider `N.N.[Cl][Pt][Cl]` [cisplatin, cis-diamminedichloroplatinum(II)], for which the “unwinding angle (reported)” value in assay [4] was 13 °.
In the case of “tans-Im/Py/Py-[CONH(CH2)2—NH2)Pt(NH3)2Cl [DJ-1953-2]”, the “apparent first-order affinity constant K for binding site d(CATTGTCAGAC)2” value in assay [1] is 1.2 × 10^6 (0.1) M^−1. Besides, the “apparent first-order affinity constant K for binding site d(CATTGACAGAC)2” value in assay [2] is listed as 5.6 × 10^5 (0.2) M^−1. In addition, in assay [3], the “apparent first-order affinity constant K for binding site d(CATTGAGAGAC)2” value is 3.0 × 10^5 (0.1) M^−1. For the same compound, the “inhibition of RNA synthesis (full-length transcript, 335 bases)” value in assay [5] is “inhibition of the full-length transcript (FLT) can be seen”.
In assay [6], trans-Im/Py/Py-Pt(Cl)(NH3)2 yielded an unwinding angle of 13 °.

The record behind these values is US20070265240A1, “Sequence Selective Pyrrole and Imidazole Polyamide Metallocomplexes” (priority 2003, published 2007).
